Results taken from US20250381198A1 (Melt Pharmaceuticals, Inc., priority 2024, published 2025).
Marks after values point to notes of the source that are not given here.

Tested on: subjects undergoing cataract extraction with lens replacement (CELR)
Assay: Phase 3: adverse events (safety analysis set)
Assay type: in vivo, human
Method: The safety of MELT-300 was performed at baseline, in the course of surgery (intraoperatively), postoperatively on Day 1, and on Day 3+1 day post dose of study medication. Safety assessment included monitoring of AEs, vital sign measurements, and physical examinations.
An overview of adverse events (AEs) is provided in TABLE 57 for the safety analysis set. Reported data includes an overall summary of the presence of any AEs, treatment-emergent ocular adverse events (TEAEs), treatment-related TEAEs, TEAE of special interest (TEAESI), serious AEs (SEAs), and treatment-emergent SAEs (TESAE). Categories were not mutually exclusive. Results include the number of subjects, percent of subjects, and number of events in each category, respectively. A summary of treatment-emergence adverse events (TEAEs) by location, system organ class, and preferred term for the safety analysis set is provided in TABLE 58. A summary of treatment-related treatment-emergent adverse events (TRTEAEs) by system organ class, and preferred term for the safety analysis set is provided in TABLE 59. No SAEs (overall), TESAEs, or treatment-related TESAEs were observed. No SAEs resulting in death or discontinuation of the study was observed.

[1] = Location: Non-Ocular, Safety Analysis Set
[2] = Location: Non-Ocular, Safety analysis set
[3] = Location: Ocular, Safety Analysis Set
[4] = Location: Ocular, Safety analysis set

Cc1ncc2n1-c1ccc(Cl)cc1C(c1ccccc1F)=NC2 [Midazolam, 8-chloro-6-(2-fluorophenyl)-1-methyl-4H-imidazo[1,5-a][1,4]benzodiazepine]
TEAE: Amnesia [1]: 0 n
TEAE: Anxiety [1]: 0 n
TEAE: Back pain [1]: 0 n
TEAE: Balance disorder [1]: 0 n
TEAE: Blood pressure increased [1]: 0 n
TEAE: Blood pressure systolic increased [1]: 0 n
TEAE: Bradycardia [1]: 0 n
TEAE: Cardiac disorders (System Organ Class) [1]: 0 n
TEAE: Cough [1]: 0 n
TEAE: Dental local anaesthesia [1]: 0 n
TEAE: Dizziness [1]: 0 n
TEAE: Fatigue [1]: 0 n
TEAE: Gastrointestinal disorders (System Organ Class) [1]: 0 n
TEAE: General disorders and administration site conditions (System Organ Class) [1]: 0 n
TEAE: Hiccups [1]: 0 n
TEAE: Hypertension [1]: 0 n
TEAE: Hypoaesthesia oral [1]: 0 n
TEAE: Infections and infestations (System Organ Class) [1]: 0 n
TEAE: Injury, poisoning and procedural complications (System Organ Class) [1]: 0 n
TEAE: Investigations (System Organ Class) [1]: 0 n
TEAE: Lethargy [1]: 0 n
TEAE: Musculoskeletal and connective tissue disorders (System Organ Class) [1]: 0 n
TEAE: Myalgia [1]: 0 n
TEAE: Nasal Discomfort [1]: 0 n
TEAE: Nausea [1]: 0 n
TEAE: Neck pain [1]: 0 n
TEAE: Oxygen saturation decreased [1]: 0 n
TEAE: Post procedural hypotension [1]: 0 n
TEAE: Procedural nausea [1]: 0 n
TEAE: Procedural vomiting [1]: 0 n
TEAE: Product after taste [1]: 0 n
TEAE: Product issues (System Organ Class) [1]: 0 n
TEAE: Psychiatric disorders (System Organ Class) [1]: 0 n
TEAE: Pyrexia [1]: 0 n
TEAE: Sinusitis [1]: 0 n
TEAE: Surgical and medical procedures (System Organ Class) [1]: 0 n
TEAE: Tachycardia [1]: 0 n
TEAE: Taste disorder [1]: 0 n
TEAE: Vascular disorders (System Organ Class) [1]: 0 n
Any AE, events [2]: 9 #
Any AE, subjects [2]: 7 (7.9) n (%)
Any Grade 3+ TEAE, events [2]: 0 #
Any Grade 3+ TEAE, subjects [2]: 0 n (%)
Any SAE, events [2]: 0 #
Any SAE, subjects [2]: 0 n (%)
Any TEAE Resulting in Death, events [2]: 0 #
Any TEAE Resulting in Death, subjects [2]: 0 n (%)
Any TEAE Resulting in Study Drug Interruption, events [2]: 0 #
Any TEAE Resulting in Study Drug Interruption, subjects [2]: 0 n (%)
Any TEAE Resulting in Study Drug Withdrawal, events [2]: 0 #
Any TEAE Resulting in Study Drug Withdrawal, subjects [2]: 0 n (%)
Any TEAE, events [2]: 5 #
Any TEAE, subjects [2]: 4 (4.5) n (%)
Any TEAESI, events [2]: 2 #
Any TEAESI, subjects [2]: 2 (2.2) n (%)
Any TESAE, events [2]: 0 #
Any TESAE, subjects [2]: 0 n (%)
Any Treatment-Related TEAE Resulting in Death, events [2]: 0 #
Any Treatment-Related TEAE Resulting in Death, subjects [2]: 0 n (%)
Any Treatment-Related TEAE, events [2]: 3 #
Any Treatment-Related TEAE, subjects [2]: 2 (2.2) n (%)
Any Treatment-Related TEAESI, events [2]: 1 #
Any Treatment-Related TEAESI, subjects [2]: 1 (1.1) n (%)
Any Treatment-Related TESAE, events [2]: 0 #
Any Treatment-Related TESAE, subjects [2]: 0 n (%)
Any Unexpected TEAE, events [2]: 0 #
Any Unexpected TEAE, subjects [2]: 0 n (%)
Any Unexpected Treatment-Related TEAE, events [2]: 0 #
Any Unexpected Treatment-Related TEAE, subjects [2]: 0 n (%)
TEAESI: Abuse-related AEs, events [2]: 0 #
TEAESI: Abuse-related AEs, subjects [2]: 0 n (%)
TEAESI: Cardiovascular AEs, events [2]: 1 #
TEAESI: Cardiovascular AEs, subjects [2]: 1 (1.1) n (%)
TEAESI: Ketamine emergence delirium, events [2]: 0 #
TEAESI: Ketamine emergence delirium, subjects [2]: 0 n (%)
TEAESI: Neurocognitive AEs, events [2]: 0 #
TEAESI: Neurocognitive AEs, subjects [2]: 0 n (%)
TEAESI: Oral/pharyngeal AEs, events [2]: 0 #
TEAESI: Oral/pharyngeal AEs, subjects [2]: 0 n (%)
TEAESI: Oversedation requiring the use of flumazenil, events [2]: 0 #
TEAESI: Oversedation requiring the use of flumazenil, subjects [2]: 0 n (%)
TEAESI: Respiratory AEs, events [2]: 1 #
TEAESI: Respiratory AEs, subjects [2]: 1 (1.1) n (%)
TEAE: Abnormal sensation in eye [3]: 0 n
TEAE: Corneal abrasion [3]: 0 n
TEAE: Corneal oedema [3]: 0 n
TEAE: Diplopia [3]: 0 n
TEAE: General disorders and administration site conditions (System Organ Class) [3]: 0 n
TEAE: Glare [3]: 0 n
TEAE: Injury, poisoning and procedural complications (System Organ Class) [3]: 0 n
TEAE: Installation site pain [3]: 0 n
TEAE: Lacrimation increased [3]: 0 n
TEAE: Ocular discomfort [3]: 0 n
TEAE: Photophobia [3]: 0 n
TEAE: Photopsia [3]: 0 n
TEAE: Procedural pain [3]: 0 n
TEAE: Visual field defect [3]: 0 n
TEAE: Visual impairment [3]: 0 n
Any AE, events [4]: 15 #
Any AE, subjects [4]: 10 (11.2) n (%)
Any Grade 3+ TEAE, events [4]: 0 #
Any Grade 3+ TEAE, subjects [4]: 0 n (%)
Any Grade 3+ Treatment-Related TEAE, events [4]: 0 #
Any Grade 3+ Treatment-Related TEAE, subjects [4]: 0 n (%)
Any SAE, events [4]: 0 #
Any SAE, subjects [4]: 0 n (%)
Any TEAE Resulting in Death, events [4]: 0 #
Any TEAE Resulting in Death, subjects [4]: 0 n (%)
Any TEAE Resulting in Study Drug Interruption, events [4]: 0 #
Any TEAE Resulting in Study Drug Interruption, subjects [4]: 0 n (%)
Any TEAE Resulting in Study Drug Withdrawal, events [4]: 0 #
Any TEAE Resulting in Study Drug Withdrawal, subjects [4]: 0 n (%)
Any TEAE, events [4]: 15 #
Any TEAE, subjects [4]: 10 (11.2) n (%)
Any TEAESI, events [4]: 0 #
Any TEAESI, subjects [4]: 2 (2.2) n (%)
Any TESAE, events [4]: 0 #
Any TESAE, subjects [4]: 0 n (%)
Any Treatment-Related TEAE, events [4]: 1 #
Any Treatment-Related TEAE, subjects [4]: 1 (1.1) n (%)
Any Treatment-Related TEAESI, events [4]: 0 #
Any Treatment-Related TEAESI, subjects [4]: 0 n (%)
Any Treatment-Related TESAE, events [4]: 0 #
Any Treatment-Related TESAE, subjects [4]: 0 n (%)
Any Unexpected TEAE, events [4]: 9 #
Any Unexpected TEAE, subjects [4]: 6 (6.7) n (%)
Any Unexpected Treatment-Related TEAE, events [4]: 0 #
